IC90 and IC50 data for 68 molecules are collected here from PubChem BioAssay AID489010 (Southern Research Specialized Biocontainment Screening …, 2010).

A value given as a limit tells only on which side of the number the result lay.

The first test relates to M. tuberculosis H37Rv growth inhibition. The test is described as follows: M. tuberculosis H37Rv growth inhibition, dose response, strain H37Rv (AID 489010).
Settings: not given
Usually IC90 stands for the concentration needed for an effect of 90%. Turning to `Cc1c(/C=N/Nc2nc3ccccc3[nH]2)c2ccccc2n1C`, the IC90 is 16.2 µM. For the molecule `CC(=O)N(Cc1ccc(F)cc1)C1=C(NCCc2ccccc2)C(=O)c2ccccc2C1=O`, the IC90 was 1.31 µM.

On to `C(=N\Nc1nncc2ccccc12)/c1ccccn1`, for which the IC90 was 19.8 µM.

Still in this test, the particulars now being: measured here: H37Rv growth IC50.
As a reminder, the IC50 is the concentration that inhibits the measured activity by half. The low end stands for greater potency, the high end for weaker potency. As for `Cc1ccc(N(NC(=O)C(O)(c2ccccc2)c2ccccc2)C(=O)CCl)cc1`, the half-maximal inhibitory concentration (IC50) is 12 µM. In turn, `COC(=O)c1sc(-c2ccc(C(C)(C)C)cc2)cc1NC(=O)/C=C/C(=O)O` returned an IC50 of 19.1 µM. Take `CC1=NNC(=O)C1Cc1c(Cl)cccc1Cl` (stereo unspecified): the IC50 was 46.2 µM. Still for that read-out and setting: for `Clc1ccc(-n2nnnc2Sc2ncnc3sccc23)cc1` the value was 5.98 µM; for `Cc1[nH]n(-c2ccccc2)c(=O)c1C(C[N+](=O)[O-])c1ccc(F)cc1` (stereo unspecified), 19.6 µM.

The molecule `Cc1ccc(Sc2ccc(NC(=O)CCl)cc2)cc1C` gave an IC50 of 14.4 µM. `CC(NC(=O)COC(=O)c1cc(NS(=O)(=O)c2ccc(Cl)c([N+](=O)[O-])c2)ccc1O)C1CC2CCC1C2` (stereo unspecified) yielded a half-inhibitory concentration (IC50) of 52.1 µM. Take `CC(C)c1nnc(NC(=O)c2nc(S(=O)(=O)Cc3ccc(F)cc3)ncc2Cl)s1`: the IC50 came to 53.8 µM. Still for that read-out and setting: in the case of `CCn1nc(/C=C/c2ccccc2)nc2c(=O)n(C)c(=O)nc1-2` it was 6.39 µM; in that of `CC(CCc1ccccc1)NC(=O)COC(=O)c1cc(NS(=O)(=O)c2ccc(Cl)c([N+](=O)[O-])c2)ccc1O` (stereo unspecified), over 100 µM.

For the molecule `C=CCOc1ccccc1CN(C(=O)CCl)c1ccc2c(c1)OCO2`, the IC50 stood at 1.64 µM. On the same count and under the same terms, for `CCN(CC)CCNC(=O)c1ccc2c(c1NCCO)C(=O)c1ccccc1C2=O` the value was over 100 µM; for `COc1ccc(C(=O)c2c(C(F)(F)F)oc3c2C(=O)c2ccccc2C3=O)cc1OC`, 9.48 µM. Same read-out and setting: for `Cc1c(/C=N/Nc2nc3ccccc3[nH]2)c2ccccc2n1C` the value was 9.5 µM. Consider `O=C(Cc1ccccc1)c1c[nH]c(C(=O)C(Cl)(Cl)Cl)c1`, for which the IC50 was 93.8 µM. As for `Cc1sc2ncnc(Sc3nnnn3-c3ccccc3)c2c1C`, the IC50 came out at 40.5 µM. The same measure, in the same setting: in the case of `CC(=O)n1cc(N(C(=O)CCl)c2ccc(C)cc2)c2ccccc21` it was 1.95 µM; in that of `COc1cc2c(cc1OC)C(c1cc(Br)ccc1F)N(C(=O)CCl)CC2` (stereo unspecified), 5.91 µM; in that of `O=C(NC(NC(=S)Nc1ccc(Cl)cc1Cl)C(Cl)(Cl)Cl)c1cccc([N+](=O)[O-])c1` (stereo unspecified), 9.33 µM.

Regarding `Cn1nc(-c2ccccn2)nc2c(=O)n(C)c(=O)nc1-2`, the IC50 is 10.1 µM.

The molecule `CN(C1=C(NC(=O)c2ccccc2)C(=O)c2ccccc2C1=O)C1CCS(=O)(=O)C1` (stereo unspecified) registered an IC50 of 88.6 µM.

`COC(=O)c1sc(-c2ccc(Cl)cc2)cc1NC(=O)/C=C/C(=O)O`: the IC50 came to 41.8 µM. On the same count and under the same terms, in the case of `CC(=O)N(Cc1ccc(F)cc1)C1=C(NCCc2ccccc2)C(=O)c2ccccc2C1=O` it was 0.74 µM.

Molecule `Cc1oc2c(c1C(=O)NCc1cccnc1)C(=O)c1ccccc1C2=O` came in with an IC50 of under 0.2 µM. The same measure, in the same setting: for `Cc1nc2c(=O)n(C)c(=O)nc-2n(C)n1` the value was 1.9 µM; for `CN(C1=C(NC(=O)c2ccc(Cl)cc2)C(=O)c2ccccc2C1=O)c1ccccc1`, 9.43 µM. As to `CCCCCCCCCCn1c2c(c(=N)c3c1CCC3)CCC2`, the IC50 was found to be 2.16 µM. The same measure, in the same setting: for `Cc1ccc(Sc2ccc(NC(=O)CCl)cc2)c(C)c1` the value was 17.7 µM; for `CSc1nnc(NC(=O)c2nc(S(=O)(=O)Cc3cccc(C)c3)ncc2Cl)s1`, 23.8 µM; for `CC(=O)n1cc(N(C(=O)CCl)c2ccc([N+](=O)[O-])cc2)c2ccccc21`, 3.24 µM. Still for that read-out and setting: in the case of `C/C(=N\NC(=O)c1ccncc1)c1cc2ccccc2oc1=O` it was 0.29 µM.

With `CC(=O)n1cc(N(C(=O)CCl)c2ccccc2)c2ccccc21`, the half-inhibitory concentration (IC50) was determined as 2.14 µM. Molecule `Cc1cc(C)c(S(=O)(=O)/N=C2\C=C(Nc3ccc(C(=O)O)cc3)C(=O)c3ccccc32)c(C)c1` came in with an IC50 of over 100 µM. On to `Cc1ccc(C)c(Sc2ccc(NC(=O)CCl)cc2)c1`, for which the IC50 came out at 22.5 µM.

Turning to `O=C(CCl)Nc1cn(-c2ccccc2)nc1-c1ccc(F)cc1`, the IC50 was under 0.2 µM.

Regarding `Cc1cc(Br)c2c(c1)/C(=C/C(=O)c1cccs1)C(=O)N2`, the IC50 stood at 11.7 µM. Still for that read-out and setting: in the case of `Cc1ccc(CS(=O)(=O)c2ncc(Cl)c(C(=O)Nc3nnc(C(C)C)s3)n2)cc1` it was 53.5 µM. Same read-out and setting: in the case of `COc1cccc(N(C(=O)CCl)C(C(=O)NCCc2ccccc2)c2cccs2)c1` (stereo unspecified) it was 19.1 µM; in that of `O=C(CCl)N(c1ccc(Cl)cc1)c1c[nH]c2ccccc12`, 1.91 µM. For the molecule `Cc1nn(-c2ccccc2)c(Cl)c1CN(C(=O)CCl)c1cccc2ccccc12`, the IC50 was 21.7 µM. On the same count and under the same terms, in the case of `CSc1nnc(NC(=O)c2nc(S(=O)(=O)Cc3ccccc3F)ncc2Cl)s1` it was 41.3 µM; in that of `Cc1nn(-c2ccccc2)c(Cl)c1CN(C(=O)CCl)c1ccc(Cl)cc1`, 1.53 µM. `O=C(CCl)N1c2ccccc2OCC1c1ccccc1` (stereo unspecified): the IC50 was found to be 1.69 µM. Still for that read-out and setting: for `Fc1ccc(Oc2nc(-c3ccccc3)nnc2C(F)(F)F)cc1` the value was over 100 µM; for `Cc1cccc(Cn2nnc3c2C(=O)c2ccccc2C3=O)c1`, 13.7 µM; for `O=C(OCn1ncc(Cl)c(Cl)c1=O)c1ccccc1Cl`, 22.1 µM. The same measure, in the same setting: in the case of `COC(=O)c1c(C)oc2ccc(N(C(=O)c3ccncc3)S(=O)(=O)c3ccc4ccccc4c3)cc12` it was 66.9 µM; in that of `O=C(N/N=C/c1c(O)n(C2CCCCC2)c(=S)[nH]c1=O)c1ccccc1O`, over 100 µM; in that of `C(=N\Nc1nncc2ccccc12)/c1ccccn1`, 15.9 µM. In turn, `Cc1[nH]n(-c2ccccc2)c(=O)c1C(c1cccc([N+](=O)[O-])c1)c1c(C)[nH]n(-c2ccccc2)c1=O` displayed an IC50 of over 100 µM.

Molecule `Cc1ccc(N(C(=O)CCl)C(C(=O)NC2CCCCC2)c2cccnc2)cc1C` (stereo unspecified) had a half-maximal inhibitory concentration (IC50) of 20.5 µM. In turn, `Cn1nc(-c2ccc(Cl)cc2)nc2c(=O)n(C)c(=O)nc1-2` yielded an IC50 of 6.35 µM. Same read-out and setting: for `COc1cc2c(cc1OC)-c1c(OC)c(OC)cc3c1C(C2)N(C)CC3` (stereo unspecified) the value was 25.8 µM; for `O=C(NC1=C(NC2CCS(=O)(=O)C2)C(=O)c2ccccc2C1=O)c1ccccc1` (stereo unspecified), 50.7 µM; for `O=C(OCn1ncc(Cl)c(Cl)c1=O)c1cccc(C(F)(F)F)c1`, 44.9 µM. Still for that read-out and setting: for `CCC(C)[C@@H](NC(=O)OC(C)(C)C)c1nnc(S(=O)(=O)Cc2cccc(C)c2)o1` (stereo partly specified) the value was 31.9 µM; for `Cc1oc2c(c1C(=O)N1CCOCC1)C(=O)c1ccccc1C2=O`, 18 µM.

For `Cc1ccc(-n2nnc3c(SCC(=O)NCC4CCCO4)ncnc32)cc1` (stereo unspecified), the half-maximal inhibitory concentration (IC50) is 46.4 µM.

In turn, `Cn1c(O)c(C2=NN(C(=O)CCl)C(c3ccccc3)C2)c(=O)n(C)c1=O` (stereo unspecified) came in with an IC50 of 82.7 µM.

As for `CC(C)(C)c1csc(Sc2ccc([N+](=O)[O-])cn2)n1`, the IC50 was found to be 51 µM. The same measure, in the same setting: in the case of `COc1ccc(N(C(=O)CCl)C(C(=O)NCCc2ccccc2)c2cccs2)cc1` (stereo unspecified) it was 7.8 µM; in that of `Cc1ccc2c(c1)c1c3n2CCN(C(=O)CCl)C3CCC1` (stereo unspecified), 1.39 µM. `Cc1ccc(C(=O)Oc2ccc([N+](=O)[O-])cc2)cc1S(=O)(=O)N1CCCCCC1`: the IC50 turned out to be 46.6 µM. The same measure, in the same setting: in the case of `COc1ccc2nc(C)cc(Sc3nc4ccccc4s3)c2c1` it was 42.3 µM; in that of `O=C(NC1CCCCC1)C(c1cccnc1)N(C(=O)CCl)c1cccc(Cl)c1` (stereo unspecified), 15.5 µM; in that of `Cc1ccccc1-n1ncc2c([N+](=O)[O-])cc([N+](=O)[O-])cc21`, 1.01 µM. As to `COc1cc(NCCCCCCCN)c2ncccc2c1`, the IC50 turned out to be 36.3 µM. `Cc1ccc(C(=O)OCn2ncc(Cl)c(Cl)c2=O)cc1` showed a concentration for half-maximal inhibition (IC50) of 42.3 µM.
